Key:
Format in all cases: cell-based, human
U-2 OS cells [1] = assay: Metaphase-TIFs in cells overexpressing FANCM variants; conditions: stable overexpression
From the text: (§1) (a) Schematic of FANCM domain interactions, mutations or deletions. For clarity, domains have been color coded by functional role (bottom panel). (b) Quantitation of metaphase-TIFs in U-2 OS cells stably overexpressing wild-type (FANCM+) or FANCM mutants. Scatterplot bars represent the mean±SEM. Out of 3 experiments, n≥110 metaphases scored for each mutant, *p<0.05, **p<0.005, Mann-Whitney test. (c) Quantitation of fragile telomeres in U-2 OS cells stably overexpressing wild-type (FANCM+) or FANCM mutants. Scatterplot bars represent the mean±SEM. Out of 3 experiments, n>100 metaphases scored for each mutant, *p<0.05, **p<0.005, Mann-Whitney test. (d) Representative dot blots and quantitation of C-circle assays in U-2 OS cells stably overexpressing wild-type (FANCM+) or FANCM domain mutants. C-circles were normalized to the mean of vector control. Error bars represent mean±SEM from n=3 experiments, *p<0.05, **p<0.005, Student's t-test. (e) Single molecule analysis of telomeric extension events (top panel) and length of extension events (bottom panel) in U-2 OS cells stably overexpressing wild-type (FANCM+) or FANCM domain mutants. Error bars represent mean±SEM of n≥350 fibers out of 3 experiments, *p<0.05, **p<0.005, Student's t-test.
(§2) FIG. 23. Defects in ALT phenotype suppression are exacerbated by overexpression of a double-mutant (DM) FANCM, in which both the MM2 domain (FF>AA) and the translocase domain (K117R) of FANCM are mutated. (a) Representative dot blots and quantitation of C-circle assays in U-2 OS cells stably overexpressing wild-type (WT) or FANCM domain mutants (K117R, FF>AA; DM). C-circles were normalized to the mean of empty vector control (EV). Error bars represent mean±SEM from n=3 experiments, *p<0.05, **p<0.005, Student's t-test. (b) Quantitation of APB frequency in U-2 OS cells overexpressing wild-type (WT) or FANCM mutants. Scatterplot bars represent the mean±SEM. Out of three experiments, n=150 cells were scored for each mutant, **p<0.005, Mann-Whitney test. (c) Quantitation of metaphase-TIFs in U-2 OS cells stably overexpressing wild-type (WT) or FANCM mutants. Scatterplot bars represent the mean±SEM. Out of three experiments, n=120 metaphases scored for each mutant, *p<0.05, **p<0.005, Mann-Whitney test. All statistical comparisons are relative to EV control.
(§3) Empty vector and wild-type FANCM (pCMV6-Myc-DDK) constructs were obtained from Origene Technologies. Wild type FANCM (SEQ ID NO: 2) and FANCM mutants (SEQ ID NOs: 19 to 28) were cloned into the pLenti-C-Myc-DDK-IRES-Neo backbone (Origene Technologies) by restriction enzyme subcloning of gene blocks synthesized by Integrated DNA Technologies (IDT). Lentivirus was produced by the Vector and Genome Engineering Facility (Children's Medical Research Institute). For stable overexpression, cells were transduced with lentivirus, allowed to recover for 24 h, and subject to G418 selection. Cells were maintained in G418 to ensure sustained overexpression.
(§4) Indirect IF and telomere FISH were performed on both interphase nuclei and metaphase spreads. For interphase IF experiments, cells were grown on coverslips or LabTek chamber slides (Thermo Scientific). Slides were prepared as described in Sobinoff et al., 2017. Cells on coverslips were washed twice with PBS, permeabilized with KCM buffer (120 mM KCl, 20 mM NaCl, 10 mM Tris pH 7.5, 0.1% Triton), washed again with PBST and PBS, then fixed with ice-cold 4% formaldehyde PBS solution at room temperature for 10 min. […]

U-2 OS cells [2] = assay: APB frequency and APB telomere intensity in cells overexpressing FANCM variants; conditions: overexpression
From the text: (a) Western immunoblotting of stable wild-type FANCM (FANCM+) or FANCM mutant overexpression in U-2 OS cells. […] (b) TRF analysis of U-2 OS cells overexpressing wild-type (FANCM+) or FANCM mutants. Gels were hybridized under native and denatured conditions with radiolabelled telomeric probes to detect the C-strand and G-strand. (c) Tukey boxplots of APB frequency (top panel) and mean APB telomere intensity (bottom panel) in U-2 OS cells overexpressing wild-type (FANCM+) or FANCM mutants. Out of 3 experiments, n=150 cells scored per variant, *p<0.05, **p<0.005, Mann-Whitney test.
as §2, §3
Indirect IF and telomere FISH were performed on both interphase nuclei and metaphase spreads. For interphase IF experiments, cells were grown on coverslips or LabTek chamber slides (Thermo Scientific). Slides were prepared as described in Sobinoff et al., 2017. Cells on coverslips were washed twice with PBS, permeabilized with KCM buffer (120 mM KCl, 20 mM NaCl, 10 mM Tris pH 7.5, 0.1% Triton), washed again with PBST and PBS, then fixed with ice-cold 4% formaldehyde PBS solution at room temperature for 10 min. Coverslips were blocked with antibody-dilution buffer (20 mM Tris-HCl, pH 7.5, 2% (w/v) BSA, 0.2% (v/v) fish gelatin, 150 mM NaCl, 0.1% (v/v) Triton X-100 and 0.1% (w/v) sodium azide) and 0.1 mg/ml RNaseA for 30 min at 37° C. Cells were incubated with primary antibodies (Supplementary Table 1) for 1 h at 37° C. or 2 h at room temperature, then incubated with 1:1,000 dilution of appropriate Alexa Fluor conjugated secondary antibodies (Thermo Scientific). Coverslips were rinsed with PBS then fixed with 4% (v/v) formaldehyde at room temperature prior to telomere FISH. Coverslips were subjected to a graded ethanol series (75% for 2 min, 85% for 2 min, and 100% for 2 min) and allowed to air-dry. […]

U-2 OS cells [3] = assay: C-circle assay in cells overexpressing FANCM variants; conditions: stable overexpression, compared to vector control
From the text: as §1, §2, §3
C-circles were amplified with Phi29 polymerase using dATP, dTTP and dGTP overnight. Products were dot blotted onto Biodyne B membranes (Pall) and pre-hybridised in PerfectHyb Plus (Sigma) for at least 30 min. Radiolabeled telomeric C-probe was then added and blots were hybridized overnight at 37° C. (Henson et al., 2009). Blots were washed with 0.5×SSC, 0.1% SDS three times for 5 min each then exposed to phosphor screen. Imaging was performed on the Typhoon FLA 7000 system (GE Healthcare) with a PMT of 750 V.

U-2 OS cells [4] = assay: Fragile telomeres in cells overexpressing FANCM variants; conditions: stable overexpression
From the text: as §1, §3
as §4, with “min. Coverslips were blocked with antibody-dilution buffer (20 mM Tris-HCl, pH 7.5, 2% (w/v) BSA, 0.2% (v/v) fish gelatin, 150 mM NaCl, 0.1% (v/v) Triton X-100 and 0.1% (w/v) sodium azide) and 0.1 mg/ml RNaseA for 30 min at 37° C.” for “min.”

## DM: double mutant FANCM with both the K117R substitution and the FF>AA double substitution (SEQ ID NO:35)
U-2 OS cells [1]
  telomere dysfunction (metaphase-TIFs): enhanced telomere dysfunction
U-2 OS cells [2]
  number of APBs: greater increase in the number of APBs
U-2 OS cells [3]
  C-circle levels: significantly greater increase in C-circles

## wild-type FANCM: wild type FANCM (SEQ ID NO: 2) stably overexpressed by lentivirus
U-2 OS cells [4]
  number of fragile telomeres (telomere fragility): significant decrease
U-2 OS cells [1]
  telomere dysfunction (metaphase-TIFs): significant decrease
U-2 OS cells [3]
  C-circle levels: significant decrease in C-circle generation

## MID: FANCM MID domain mutant (SEQ ID NO: 21) substituted at V749G/H751G
U-2 OS cells [4]
  number of fragile telomeres (telomere fragility): significantly increased
U-2 OS cells [1]
  telomere dysfunction (metaphase-TIFs): significantly increased

## ERCC4: FANCM ERCC4 domain mutant (SEQ ID NO: 27), deletion at amino acid residues 1815-1922
U-2 OS cells [3]
  C-circle levels: did not cause a change in C-circle levels

## HhH: FANCM HhH domain mutant (SEQ ID NO: 28), deletion at amino acid residues 1971-2048
U-2 OS cells [3]
  C-circle levels: did not cause a change in C-circle levels
